Test results published in US20220040129A1, “TREATMENT OF HYPERAMMONEMIA IN PATIENTS WITH RENAL INSUFFICIENCY” (RECORDATI S.p.A., priority 2019, published 2022).
Like-named read-outs stand apart in the source and are kept apart here.

Tests used:
[1] = Pharmacokinetics in healthy subjects after oral administration (radiolabeled and non-radiolabeled); type: in vivo, human; details: for half-life / CL renal: in vivo; for half-life / CL renal / Tmax: po
human OATP1B3 = molecular target: T1, human OATP1B3 (Homo sapiens, UniProt Q9NPD5); experiment: In vitro transporter inhibition; type: in vitro ADME
T1 sequence (Q9NPD5 1-702): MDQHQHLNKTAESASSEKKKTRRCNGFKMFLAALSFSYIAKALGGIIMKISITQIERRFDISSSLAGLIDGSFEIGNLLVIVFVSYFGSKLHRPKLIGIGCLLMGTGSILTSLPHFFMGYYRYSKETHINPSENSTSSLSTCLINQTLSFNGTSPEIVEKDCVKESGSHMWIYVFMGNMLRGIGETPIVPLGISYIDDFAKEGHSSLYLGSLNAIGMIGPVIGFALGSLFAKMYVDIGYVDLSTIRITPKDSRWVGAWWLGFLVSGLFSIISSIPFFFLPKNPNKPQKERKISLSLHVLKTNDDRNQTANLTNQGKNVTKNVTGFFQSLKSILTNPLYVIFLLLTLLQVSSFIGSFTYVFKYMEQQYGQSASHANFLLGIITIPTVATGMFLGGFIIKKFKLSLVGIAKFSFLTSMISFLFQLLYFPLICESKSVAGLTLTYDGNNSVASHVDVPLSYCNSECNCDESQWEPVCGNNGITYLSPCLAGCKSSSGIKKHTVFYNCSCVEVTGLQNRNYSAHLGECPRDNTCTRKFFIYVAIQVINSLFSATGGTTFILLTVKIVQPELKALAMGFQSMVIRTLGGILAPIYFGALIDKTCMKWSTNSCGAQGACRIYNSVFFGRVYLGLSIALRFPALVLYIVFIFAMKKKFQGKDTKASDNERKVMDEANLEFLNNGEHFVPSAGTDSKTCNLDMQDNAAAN
Method: (§1) In vitro drug interaction studies were performed with human transporters. […] Potential interactions with inhibitors of the OAT1 transporter were considered clinically irrelevant.

human MDR1 = human MDR1 (Homo sapiens, UniProt P08183); experiment: In vitro transporter inhibition; type: in vitro ADME
Sequence of human MDR1 (P08183 whole entry): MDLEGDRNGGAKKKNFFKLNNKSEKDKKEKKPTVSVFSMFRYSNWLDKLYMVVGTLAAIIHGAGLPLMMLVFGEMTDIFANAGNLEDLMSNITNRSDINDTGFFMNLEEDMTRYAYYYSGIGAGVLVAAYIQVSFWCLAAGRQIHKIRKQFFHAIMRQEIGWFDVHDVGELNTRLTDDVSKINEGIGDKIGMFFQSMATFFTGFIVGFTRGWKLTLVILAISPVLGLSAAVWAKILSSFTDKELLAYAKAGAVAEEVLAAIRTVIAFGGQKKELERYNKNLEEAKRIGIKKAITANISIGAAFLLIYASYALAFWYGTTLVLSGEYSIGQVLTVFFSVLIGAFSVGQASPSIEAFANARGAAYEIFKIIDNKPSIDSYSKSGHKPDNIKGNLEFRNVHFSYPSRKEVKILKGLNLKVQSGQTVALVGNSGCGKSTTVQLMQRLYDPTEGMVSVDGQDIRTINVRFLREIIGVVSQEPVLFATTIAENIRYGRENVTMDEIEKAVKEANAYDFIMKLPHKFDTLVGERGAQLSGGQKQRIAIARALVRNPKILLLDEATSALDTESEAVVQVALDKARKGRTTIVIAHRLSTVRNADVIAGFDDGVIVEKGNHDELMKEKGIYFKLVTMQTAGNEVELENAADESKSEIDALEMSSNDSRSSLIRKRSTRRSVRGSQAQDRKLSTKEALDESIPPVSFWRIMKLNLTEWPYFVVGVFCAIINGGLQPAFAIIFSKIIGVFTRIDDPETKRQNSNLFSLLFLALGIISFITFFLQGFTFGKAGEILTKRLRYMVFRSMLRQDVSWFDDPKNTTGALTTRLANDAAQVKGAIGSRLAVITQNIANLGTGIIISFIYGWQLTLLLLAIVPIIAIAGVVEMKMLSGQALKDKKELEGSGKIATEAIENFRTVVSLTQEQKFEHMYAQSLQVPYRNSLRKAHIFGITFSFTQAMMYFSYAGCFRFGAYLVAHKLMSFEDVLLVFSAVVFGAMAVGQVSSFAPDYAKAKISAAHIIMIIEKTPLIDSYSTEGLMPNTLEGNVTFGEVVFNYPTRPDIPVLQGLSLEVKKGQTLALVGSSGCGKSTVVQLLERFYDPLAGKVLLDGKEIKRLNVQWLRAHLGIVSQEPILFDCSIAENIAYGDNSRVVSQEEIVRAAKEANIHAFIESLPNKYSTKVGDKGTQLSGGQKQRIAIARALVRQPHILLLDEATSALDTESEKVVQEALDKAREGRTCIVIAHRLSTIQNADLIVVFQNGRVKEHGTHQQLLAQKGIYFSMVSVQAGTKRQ
Method: as §1

human BSEP = human BSEP (Homo sapiens, UniProt O95342); experiment: In vitro transporter inhibition; type: in vitro ADME
Sequence of human BSEP (O95342 whole entry): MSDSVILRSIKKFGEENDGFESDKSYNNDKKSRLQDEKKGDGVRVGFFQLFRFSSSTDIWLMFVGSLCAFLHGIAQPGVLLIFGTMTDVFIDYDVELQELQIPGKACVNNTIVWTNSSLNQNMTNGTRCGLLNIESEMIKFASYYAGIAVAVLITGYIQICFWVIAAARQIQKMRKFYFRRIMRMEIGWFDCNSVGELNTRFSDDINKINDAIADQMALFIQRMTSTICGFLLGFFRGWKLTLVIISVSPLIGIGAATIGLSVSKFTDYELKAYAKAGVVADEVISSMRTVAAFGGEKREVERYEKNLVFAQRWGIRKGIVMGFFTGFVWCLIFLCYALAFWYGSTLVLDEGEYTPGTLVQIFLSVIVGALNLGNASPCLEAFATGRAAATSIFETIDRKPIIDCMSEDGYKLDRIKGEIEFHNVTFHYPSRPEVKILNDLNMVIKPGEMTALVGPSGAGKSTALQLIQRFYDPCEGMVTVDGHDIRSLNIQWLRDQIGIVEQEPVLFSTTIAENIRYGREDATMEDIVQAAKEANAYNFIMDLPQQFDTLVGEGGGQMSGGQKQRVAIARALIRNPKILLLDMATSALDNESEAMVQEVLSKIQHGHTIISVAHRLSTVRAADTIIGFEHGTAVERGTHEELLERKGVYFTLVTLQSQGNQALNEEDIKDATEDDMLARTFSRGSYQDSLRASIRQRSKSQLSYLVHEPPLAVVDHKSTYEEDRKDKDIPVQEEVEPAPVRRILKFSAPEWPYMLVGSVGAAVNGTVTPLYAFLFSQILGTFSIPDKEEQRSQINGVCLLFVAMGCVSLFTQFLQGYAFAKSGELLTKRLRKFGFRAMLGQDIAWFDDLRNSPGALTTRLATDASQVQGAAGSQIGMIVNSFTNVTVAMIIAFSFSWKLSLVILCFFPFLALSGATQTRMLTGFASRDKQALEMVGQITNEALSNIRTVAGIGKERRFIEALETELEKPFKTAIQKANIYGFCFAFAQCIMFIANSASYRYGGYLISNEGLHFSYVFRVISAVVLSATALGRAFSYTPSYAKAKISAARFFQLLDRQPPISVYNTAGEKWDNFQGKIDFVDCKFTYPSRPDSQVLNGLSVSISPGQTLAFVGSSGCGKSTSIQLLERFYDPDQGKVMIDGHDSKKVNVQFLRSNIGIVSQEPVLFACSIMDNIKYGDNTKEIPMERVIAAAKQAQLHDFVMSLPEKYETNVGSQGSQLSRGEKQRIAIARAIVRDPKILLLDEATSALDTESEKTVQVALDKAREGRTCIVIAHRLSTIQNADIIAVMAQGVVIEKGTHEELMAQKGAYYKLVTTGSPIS
Method: as §1

human OCT1 = molecular target: T2, human OCT1 (Homo sapiens, UniProt O15245); experiment: In vitro transporter inhibition; type: in vitro ADME
T2 sequence (O15245 1-554): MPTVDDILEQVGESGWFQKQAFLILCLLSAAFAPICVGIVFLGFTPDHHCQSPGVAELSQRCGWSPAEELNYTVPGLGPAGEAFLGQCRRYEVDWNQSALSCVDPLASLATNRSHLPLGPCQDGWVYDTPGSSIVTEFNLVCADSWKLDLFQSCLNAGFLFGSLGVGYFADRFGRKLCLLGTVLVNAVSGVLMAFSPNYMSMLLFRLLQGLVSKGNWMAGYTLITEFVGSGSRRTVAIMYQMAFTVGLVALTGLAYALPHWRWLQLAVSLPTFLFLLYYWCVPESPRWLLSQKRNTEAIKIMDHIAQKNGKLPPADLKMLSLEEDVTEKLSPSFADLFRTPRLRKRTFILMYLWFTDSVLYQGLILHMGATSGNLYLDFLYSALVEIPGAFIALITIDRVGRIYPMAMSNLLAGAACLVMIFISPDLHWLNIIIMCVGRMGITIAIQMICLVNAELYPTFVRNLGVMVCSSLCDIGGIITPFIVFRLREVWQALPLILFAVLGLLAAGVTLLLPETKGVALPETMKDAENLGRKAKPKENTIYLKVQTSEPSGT
Method: as §1

human OCT2 = molecular target: T3, human OCT2 (Homo sapiens, UniProt O15244); experiment: In vitro transporter inhibition; type: in vitro ADME
T3 sequence (O15244 1-555): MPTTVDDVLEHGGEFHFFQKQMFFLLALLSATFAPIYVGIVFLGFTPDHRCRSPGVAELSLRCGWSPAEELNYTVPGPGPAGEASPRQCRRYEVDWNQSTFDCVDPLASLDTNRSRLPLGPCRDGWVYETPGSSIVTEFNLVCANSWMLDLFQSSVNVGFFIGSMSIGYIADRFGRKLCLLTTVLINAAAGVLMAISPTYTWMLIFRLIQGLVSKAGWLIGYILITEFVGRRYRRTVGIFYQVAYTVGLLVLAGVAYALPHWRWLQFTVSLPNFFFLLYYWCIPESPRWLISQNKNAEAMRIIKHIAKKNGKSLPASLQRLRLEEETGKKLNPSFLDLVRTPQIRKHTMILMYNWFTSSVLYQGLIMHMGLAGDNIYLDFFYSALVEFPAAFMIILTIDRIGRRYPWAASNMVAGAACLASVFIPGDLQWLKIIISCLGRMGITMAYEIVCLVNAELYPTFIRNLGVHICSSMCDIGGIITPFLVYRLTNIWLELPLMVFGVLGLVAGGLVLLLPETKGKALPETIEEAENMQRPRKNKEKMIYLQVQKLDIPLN
Method: as §1

plasma NH3 = details: cited from earlier work
[2] = single radiolabeled oral dose of 100 mg/kg
[3] = in most cases, carglumic acid alone, 13 episodes
[4] = second block headed All (N = 5), First 24 hrs
[5] = second block headed All (N = 5), First 48 hrs

NC(=O)N[C@@H](CCC(=O)O)C(=O)O [carglumic acid, N-carbamoyl-L-glutamic acid]
24-hour urinary excretion ([1]; after oral administration): 4.5 % of the dose | Apparent total clearance, median ([1]; after oral administration): 5.7 L/min | Apparent volume of distribution, median ([1]; after oral administration): 2657 L | Apparent volume of distribution, median per kg ([1]; after oral administration): 35.9 L/kg | Apparent volume of distribution, range ([1]; after oral administration): 1616 to 5797 L | half-life ([1]; human, after oral administration, read-out: Initial half-life (converted)): ~5.6 h | CL renal ([1]; human, after oral administration, read-out: Renal clearance, median): 290 mL/min | CL renal ([1]; human, after oral administration, read-out: Renal clearance, range): 204 to 445 mL/min | half-life ([1]; human, after oral administration, read-out: Terminal half-life (converted)): ~22 h | bioavailability ([1]; human, plasma, 100 mg/kg, oral, read-out: Absolute bioavailability): 9.9% | Tmax ([1]; human, plasma, read-out: Tmax, median): 3 h | Tmax ([1]; human, plasma, read-out: Tmax, range): 2 to 4 h | Dose excreted unchanged in the urine [1, 2]: 9 % of the dose | Dose recovered unchanged in the feces [1, 2]: up to 60 % of the dose | Inhibition of human OATP1B3 uptake transporter (human OATP1B3): not an inhibitor | Inhibition of human MDR1 efflux transporter (human MDR1): not an inhibitor | Inhibition of human BSEP efflux transporter (human BSEP): not an inhibitor | Inhibition of human OCT1 uptake transporter (human OCT1): not an inhibitor | Inhibition of human OCT2 uptake transporter (human OCT2): not an inhibitor | Plasma NH3 level, Mean (SD) (plasma NH3; All episodes, First 24 hrs): 94.6 (47.6) micromol/L | Plasma NH3 level, Median (plasma NH3; All episodes, First 24 hrs): 100.0 µmol/L | Plasma NH3 level, Min-Max (plasma NH3; All episodes, First 24 hrs): 43.3 to 187.9 µmol/L | Plasma NH3 level, Q1-Q3 (plasma NH3; All episodes, First 24 hrs): 50.0 to 110.5 µmol/L | Plasma NH3 level, Mean (SD) (plasma NH3; All episodes, First 48 hrs): 80.5 (43.4) micromol/L | Plasma NH3 level, Median (plasma NH3; All episodes, First 48 hrs): 66.0 µmol/L | Plasma NH3 level, Min-Max (plasma NH3; All episodes, First 48 hrs): 32.0 to 187.9 µmol/L | Plasma NH3 level, Q1-Q3 (plasma NH3; All episodes, First 48 hrs): 50.0 to 100.0 µmol/L | Plasma NH3 level, Mean (SD) (plasma NH3; Non-Neonates, First 24 hrs): 106.1 (56.6) micromol/L | Plasma NH3 level, Median (plasma NH3; Non-Neonates, First 24 hrs): 100.0 µmol/L | Plasma NH3 level, Min-Max (plasma NH3; Non-Neonates, First 24 hrs): 47.6 to 187.9 µmol/L | Plasma NH3 level, Q1-Q3 (plasma NH3; Non-Neonates, First 24 hrs): 50.0 to 170.0 µmol/L | Plasma NH3 level, Mean (SD) (plasma NH3; Non-Neonates, First 48 hrs): 81.8 (52.2) micromol/L | Plasma NH3 level, Median (plasma NH3; Non-Neonates, First 48 hrs): 58.0 µmol/L | Plasma NH3 level, Min-Max (plasma NH3; Non-Neonates, First 48 hrs): 32.0 to 187.9 µmol/L | Plasma NH3 level, Q1-Q3 (plasma NH3; Non-Neonates, First 48 hrs): 48.8 to 110.5 µmol/L | Time within which a marked reduction in plasma NH3 levels was observed (plasma NH3; [3]): ≤ 6 h | Time within which plasma NH3 values were normalized (plasma NH3; [3]): ≤ 30 h | Plasma NH3 level, Mean (SD) (plasma NH3; [4]): 78.5 (29.6) micromol/L | Plasma NH3 level, Median (plasma NH3; [4]): 100.0 µmol/L | Plasma NH3 level, Min-Max (plasma NH3; [4]): 42.3 to 100.0 µmol/L | Plasma NH3 level, Q1-Q3 (plasma NH3; [4]): 50.0 to 100.0 µmol/L | Plasma NH3 level, Mean (SD) (plasma NH3; [5]): 78.5 (29.6) micromol/L | Plasma NH3 level, Median (plasma NH3; [5]): 100.0 µmol/L | Plasma NH3 level, Min-Max (plasma NH3; [5]): 42.3 to 100.0 µmol/L | Plasma NH3 level, Q1-Q3 (plasma NH3; [5]): 50.0 to 100.0 µmol/L
